Measurements from patent US6319898A, “Method for inhibiting eukaryotic protein kinases” (Terragen Diversity, Inc., priority 1998, dated 2001).
Residues, ends and D or L forms follow the SMILES beside them.

What was measured:
[1] = test system: Protein Kinase C purified from rat brain; assay: Protein Kinase C colorimetric assay (Pierce), absorbance at 570 nm; assay type: biochemical; details: for absorbance read at 570 nm: 10 ng PKC + 10 ug, 30 min at 30° C, control reaction 0.228 (srf), 0.203 (polymyxin B)
Method: Protein Kinase C purified from rat brain was obtained from Upstate Biotechnology. The activity of the enzyme was assayed in a colorimetric assay developed by Pierce. Reaction mixtures were prepared to contain 5 ul each of the 5×reaction buffer, the dye labeled glycogen synthase synthetic peptide substrate reconstituted to 1.77 mM and the 5× activator solution of phosphatidyl-L-serine, all supplied by Pierce in a PKC assay kit. The activator solution was sonicated for 30 sec. on ice prior to use. 1 ul of the kinase (equivalent to 10 ng of enzyme with a specific activity of 12.1 units/mg) was added to 10 ul of a solution containing the compound to be tested for inhibitory activity and allowed to stand at room temperature for 10 minutes then transferred to the reaction tube containing the substrate and incubated 30 min. at 30° C. After incubation 20 ul of each sample was applied to the centre of the affinity membrane in the separation units supplied with the assay kit. These membranes specifically bind the phosphorylated dye labeled substrate while non-phosphorylated peptide will pass through when spun at low speeds. After washing the membranes the phosphorylated peptide was eluted by spinning with the elution buffer and absorbance read at 570 nm in a Molecular Devices V-max plate reader.

Streptomyces 85E = assay: Inhibition of sporulation of Streptomyces 85E, filter paper disc on seeded plate; assay type: cell-based, Streptomyces WEC478-85E; details: surfactin in these concentrations (1 to 10 ug on the disc)
Method: In the test assay, material to be tested was applied to a filter paper disk and then placed on a plate which has been freshly seeded with the strain […] test organism. The test organism is then allowed to grow in the presence of the filter paper disk for a period of 24 to 36 hours, after which the organism is evaluated for altered development in the zone around the disk. An observation of an inhibition of the formation of aerial mycelia and spores, without inhibition of the growth of vegetative mycelia is particularly indicative of the presence of an inhibitor of post-translational phosphorylation. Samples of surfactin prepared as described from Bacillus 60A as well as surfactin from Bacillus subtilis with the same molecular weight (1036) obtained from Sigma were tested for their ability to inhibit sporulation of Streptomyces […].

Human c-Src (p60^c-src) = molecular target: T1, Human c-Src (p60^c-src) (Homo sapiens, UniProt P12931); assay: c-Src tyrosine kinase ELISA based assay (Pierce), absorbance at 450 nm; assay type: biochemical
T1 construct: purchased Upstate Biotechnology
Method: Human c-Src (p60^c-src) was obtained from Upstate Biotechnology. The activity of the enzyme was assayed in an ELISA based assay developed by Pierce. Following their protocol, 500 ng of a biotinylated peptide substrate in distilled water (Pierce biotinylated peptide substrate #2, sequence Biotin-EGPWLEEEEEAYGWMDF) (SEQ ID NO:2) was added to a NeutrAvidin™ coated well, incubated at 37° C. for 30 minutes to allow binding to the well then washed with Tris-buffered saline (TBS, 25 mM Tris, 0.15 M NaCl, pH 7.6). For each reaction, a reaction buffer mixture was prepared to contain 10 ul of src assay buffer (100 mM Tris-HCl, pH 7.2, 25 mM MnCl2, 2.0 mM EGTA, 0.25 mM Na3 VO4, 125 mM Mg Acetate) 20 ul of ATP/MgCl2 buffer (5 mM ATP, 50 MM MgCl2 in TBS) and 1 ul of protease inhibitor mix (PMSF and pepstatin, final concentrations in Rx: 0.5 mM and 1.5 uM). The src enzyme is supplied at a concentration of 3 units per microliter and dilutions of the kinase were prepared in 1% bovine serum albumin (BSA) in TBS typically to final concentrations of 0.2 or 0.4 units in 10 ul. 10 ul of a solution of a compound to be tested for inhibitory activity was added to the reaction buffer mixture and allowed to stand 10-15 min. at room temperature, then 10 ul of the diluted kinase enzyme was added and the mixture was allowed to stand 10 min. at room temperature before addition to the substrate coated well. The plate was incubated at 30° C. for varying periods of time then the contents were washed out with repeated rinsings with TBS. A mouse monoclonal anti-phosphotyrosine antibody (PY20) conjugated to horseradish peroxidase (Pierce) was diluted 1:2000 in 1% BSA diluent from 1 mg/ml and 75 ul of this dilution was added to each well, incubated 1 hour at 37° C. then washed out with repeated rinsings with TBS.
100 ul of horseradish peroxidase substrate solution (3,3',5,5' tetramethylbenzidine and H2 O2, Pierce TMB-ELISA) was added to each well and after 10 min. the reaction was stopped with the addition of 100 ul of 1 N H2 SO4. Absorbance was read at 450 nm in a Molecular Devices V-max plate reader.
Examples of inhibition detected using this assay: (Values reported are the absorbance readings after subtraction of a blank well containing no enzyme.)

E. coli = assay: Growth inhibition of E. coli; assay type: cell-based; details: surfactin in these concentrations (1 to 10 ug on the disc)
Source text: (§1) Eventually the inhibition is overcome and the culture sporulates.

S. aureus = assay: Growth inhibition of S. aureus; assay type: cell-based; details: surfactin in these concentrations (1 to 10 ug on the disc)
Source text: as §1

T1 sequence (P12931 whole entry): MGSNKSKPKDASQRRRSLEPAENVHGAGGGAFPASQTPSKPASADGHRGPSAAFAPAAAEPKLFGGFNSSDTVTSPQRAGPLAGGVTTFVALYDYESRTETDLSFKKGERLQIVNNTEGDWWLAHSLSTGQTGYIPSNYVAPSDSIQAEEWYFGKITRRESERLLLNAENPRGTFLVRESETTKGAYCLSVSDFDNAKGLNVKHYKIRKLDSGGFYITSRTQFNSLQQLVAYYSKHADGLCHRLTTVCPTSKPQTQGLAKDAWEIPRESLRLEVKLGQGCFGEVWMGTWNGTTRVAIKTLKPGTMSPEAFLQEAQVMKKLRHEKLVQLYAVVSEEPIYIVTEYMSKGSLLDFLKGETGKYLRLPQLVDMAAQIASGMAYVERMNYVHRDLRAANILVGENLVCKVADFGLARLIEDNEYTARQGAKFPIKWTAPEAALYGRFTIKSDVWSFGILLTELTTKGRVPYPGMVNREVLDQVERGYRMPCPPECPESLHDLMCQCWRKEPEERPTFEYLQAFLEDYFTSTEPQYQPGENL

Compound	absorbance read at 570 nm [1]	inhibition of growth of the vegetative mycelia (Streptomyces 85E)	persistence of the inhibition of aerial mycelia and spore formation after unaffected portions of the culture have sporulated (Streptomyces 85E) [days]	inhibition of the activity of the tyrosine kinase (Human c-Src (p60^c-src); 100 uM in the reaction)	inhibition of the activity of the tyrosine kinase (Human c-Src (p60^c-src); 200 uM in the reaction (10 ug))	absorbance reading after subtraction of a blank well containing no enzyme (Human c-Src (p60^c-src); 0.05 unit c-Src + 10 ug, 30 min at 30° C, control reaction 0.315)	absorbance reading after subtraction of a blank well containing no enzyme (Human c-Src (p60^c-src); 0.1 unit c-Src + 10 ug, 30 min at 30° C, control reaction 0.391)	absorbance reading after subtraction of a blank well containing no enzyme (Human c-Src (p60^c-src); 0.2 unit c-Src + 5 ug, 5 min at 30° C, control 0.220)	absorbance reading after subtraction of a blank well containing no enzyme (Human c-Src (p60^c-src); 0.2 unit c-Src + 10 ug, 5 min at 30° C, control 0.220)	absorbance reading after subtraction of a blank well containing no enzyme (Human c-Src (p60^c-src); 0.2 unit c-Src + 10 ug, 30 min at 30° C, control reaction 0.396)	absorbance reading after subtraction of a blank well containing no enzyme (Human c-Src (p60^c-src); 0.4 unit c-Src + 10 ug, 30 min at 30° C, control reaction 0.517)	potency against the tyrosine kinase c-Src compared with the serine-threonine kinase PKC (Human c-Src (p60^c-src); conclusion from the c-Src and PKC assays)	inhibition of Protein Kinase C ([1]; 380 uM in the reaction)	inhibition of growth of E. coli (E. coli)	inhibition of growth of S. aureus (S. aureus)
Polymyxin B [reference compound]	0.035	–	–	–	–	–	–	–	–	–	–	–	–	–	–
CC(C)CCCCCCCCC[C@@H]1CC(=O)N[C@@H](CCC(=O)O)C(=O)N[C@@H](CC(C)C)C(=O)N[C@H](CC(C)C)C(=O)N[C@@H](C(C)C)C(=O)N[C@@H](CC(=O)O)C(=O)N[C@H](CC(C)C)C(=O)N[C@@H](CC(C)C)C(=O)O1 [surfactin] (HELM PEPTIDE1{E.L.[dL].V.D.[dL].L}|CHEM1{[CC(C)CCCCCCCCC[C@H](CC(=O)[*:1])O[*:2]]}$PEPTIDE1,CHEM1,1:R1-1:R1|PEPTIDE1,CHEM1,7:R2-1:R2$$$V2.0)	0.181	does not inhibit growth of the vegetative mycelia	3 to 4	has inhibited the activity of the tyrosine kinase tested	has inhibited the activity of the tyrosine kinase tested	0.050	0.093	0.185	0.087	0.191	0.311	more potent inhibitors of the tyrosine kinase tested than this serine-threonine kinase	only minimally inhibitory	does not inhibit growth	does not inhibit growth
